From paper PMC7356157, “Shorter Antibacterial Peptide Having High Selectivity for E. coli Membranes and Low Potential for Inducing Resistance” (Microorganisms, 2020)
≈ marks a conversion by molar mass, not a printed value. Like-named read-outs stand apart in the source and are kept apart here. No end group written: not given here.

What was measured:
[1] = system: E. coli N°40 (clinical isolate); conditions: broth microdilution; for MIC E. coli N°40: clinical isolate from blood
Protocol: (§1) The standard broth microdilution method was used for determining the peptides’ MIC [41]. […] Bacteria in Müller–Hinton broth (MHB) were used as negative control. […] The MIC was determined as the lowest peptide concentration at which bacterial growth was not detected.
(§2) Approximately 50 bacterial samples were then collected from E. coli-infected patients for evaluating activity of the peptides against some clinical isolates. These samples were identified and biochemically and metabolically characterised using the VITEK-2 equipment. Isolates were profiled regarding their resistance or susceptibility to a panel of conventionally used antibiotics.

[2] = system: E. coli N°4 (clinical isolate); conditions: broth microdilution; for MIC E. coli N°4: clinical isolate from urine
Protocol: as §1, §2

[3] = system: E. coli N°44 (clinical isolate); conditions: broth microdilution; for MIC E. coli N°44: clinical isolate from blood, ESBL (+)
Protocol: as §1, §2

E. coli [4] = experiment: microbe, parasite or virus in culture; conditions: Escherichia coli, read-out: Individual gentamicin MIC
Protocol: (§5) The checkerboard method was used for evaluating peptide antibacterial activity in combination with antibiotics [43]. […] Absorbance was measured at 620 nm and individual peptide and antibiotic MIC and combined MIC were obtained. […] The fractional inhibitory concentration index (FICI) was then calculated as the sum of peptide FIC + antibiotic FIC. A ≤ 0.5 FICI indicated synergy, 0.5 to ≤4 FICI indifference, and >4 FICI antagonism [45].
(§6) The results were interpreted by taking the lowest checkerboard FIC index (previously reported method 3) [44].

[5] = system: E. coli clinical isolate 44; experiment: Resistance profile of clinical isolate (VITEK-2); format: cell-based; conditions: Escherichia coli, isolate from blood
Source text: as §2

[6] = system: E. coli clinical isolate 4; experiment: Resistance profile of clinical isolate (VITEK-2); format: cell-based; conditions: Escherichia coli, isolate from urine
Source text: as §2

[7] = system: E. coli clinical isolate 40; experiment: Resistance profile of clinical isolate (VITEK-2); format: cell-based; conditions: Escherichia coli, isolate from blood
Source text: as §2

E. coli ML35 = experiment: Permeabilising internal membrane (ONPG); format: cell-based; conditions: 1× MIC; for permeabilisation of E. coli internal membrane: ONPG, 405 nm, 4.5 h
[8] = system: human red blood cells (hRBC); experiment: Haemolytic activity (MHC); format: cell-based; conditions: for MHC (minimum haemolytic concentration): 5% v/v hRBC in 1X PBS, 200–0.39 µM, 1 h, 37 °C, absorbance 560 nm
Protocol: A haemolytic activity assay was used for determining whether peptides acted on hRBC membrane by calculating the minimum haemolytic concentration (MHC). Briefly, 100 µL serial dilutions of peptides were incubated in a 96-well plate with an equal volume of a fresh hRBC suspension at 5% v/v in 1X PBS (200–0.39 µM final peptide concentrations). The samples were spun at 1000× g for 5 min after having been incubated at 37 °C for 1 h and a Multiskan spectrometer (Thermo Fisher) was used for measuring 100 µL supernatant absorbance at 560 nm. Treated hRBC absorbance 0.1% Triton X-100 or 100% haemolysis was used as positive control.

E. coli ATCC 25922 [9] = format: cell-based; conditions: for MIC E. coli 25922: broth microdilution, MHB, ~5 × 10^5 CFU/mL, 18 h, 37 °C, OD 620 nm, 100 to 0.2 µM; for MIC against E. coli 25922, MHB: no serum
E. coli ML35 43827 [10] = format: cell-based; conditions: broth microdilution
P. aeruginosa 27853 [11] = experiment: MIC by broth microdilution; format: cell-based; conditions: MHB, 18 h, 37 °C
E. coli 25922 = experiment: Antibacterial activity in the presence of human sera; format: cell-based; conditions: for MIC against E. coli 25922, Serum (without Pre-Incubation): peptide diluted in fresh human sera (100%), then inoculum in MHB ~5 × 10^5 CFU/mL, 18 h, 37 °C
Protocol: The second assay involved peptide dilution in fresh human sera (100%) pre-incubated for 6 h at 37 °C in a humid chamber before putting them in contact with the bacterial inoculum diluted in MHB (~5 × 10^5 CFU/mL). The assay was incubated and read as mentioned in the microdilution section.

E. coli 35218 = format: cell-based
Protocol: (§3) Bactericidal activity was evaluated by sowing an aliquot of Luria Bertani agar (LBA) in the wells where no growth had been detected in the MIC assay.

[12] = system: E. coli 35218 (ampicillin-resistant ATCC 35218 strain); format: cell-based; conditions: broth microdilution
[13] = system: human red blood cells (hRBC); conditions: cited from earlier work
Source text: (§4) Its therapeutic index (TI) calculated for E. coli ML35 is 0.045, indicating low selectivity [[ ...

HepG2 human cell line = conditions: cited from earlier work
Source text: as §4

HeLa human cell line = conditions: cited from earlier work
Source text: as §4

E. coli ATCC 11775 = format: cell-based; conditions: broth microdilution
E. coli ML35 43827 [14] = experiment: Bactericidal activity (MBC); format: cell-based
Protocol: as §3

E. coli ATCC 25922 [15] = experiment: Bactericidal activity (MBC); format: cell-based; conditions: aliquots of no-growth MIC wells on LBA, 18 h, 37 °C; kills 99.9%
Protocol: as §3

E. coli [16] = system: E. coli
Protocol: as §5, §6

P. aeruginosa 27853 [17] = experiment: Bactericidal activity (MBC); format: cell-based; conditions: LBA, 18 h, 37 °C
Protocol: as §3

[18] = system: E. coli N°44 (clinical isolate); format: cell-based
Protocol: as §3
Approximately 50 bacterial samples were then collected from E. coli-infected patients for evaluating activity of the peptides against some clinical isolates. These samples were identified and biochemically and metabolically characterised using the VITEK-2 equipment. Isolates were profiled regarding their resistance or susceptibility to a panel of conventionally used antibiotics. Three E. coli isolates having different resistance profiles were then selected following such characterisation (Appendix A): • Isolate 4 (from urine): extended spectrum beta-lactamase (ESBL) (-), resistant to ampicillin, quinolones and co-trimoxazole. • Isolate 40 (from blood): ESBL (-), resistant to ampicillin, 1st-generation cephalosporins and co-trimoxazole. • Isolate 44 (from blood): ESBL (+), resistant to aminoglycosides, quinolones, β-lactams (including 1st-, 3rd- and 4th-generation cephalosporins).

E. coli [19] = system: E. coli; remark: listed apart in the source
Protocol: as §5, §6

E. coli ATCC 25922 [20] = experiment: Potential for inducing bacterial resistance (serial subculture at 0.5 MIC); format: cell-based; conditions: repeated treatment with 0.5× MIC, 18 days, two independent assays in duplicate
Protocol: The MIC against this subculture was then determined by micro-dilution in broth. […] Two independent assays were carried out in duplicate. MIC changes were plotted for each subculture (day of assay).

[21] = system: E. coli (ATCC strains and clinical isolates); experiment: MIC summarised over several E. coli strains; format: cell-based
Protocol: The standard broth microdilution method was used for determining the peptides’ MIC [41]. Briefly, serial peptide dilutions (100 to 0.2 µM concentration) were incubated in 96-well plates at 100 μL/well final volume for 18 h at 37 °C in a damp chamber with ~5 × 10^5 CFU/mL bacterial inoculum (calculated from the calibration curve equation previously obtained for each strain (Figure S1)). Optical density (OD) was measured at 620 nm after 18 h on a microplate reader. Bacteria in Müller–Hinton broth (MHB) were used as negative control. […] The MIC was determined as the lowest peptide concentration at which bacterial growth was not detected.

| Compound | permeabilisation of E. coli internal membrane (E. coli ML35) | MHC (minimum haemolytic concentration) [8] | MIC E. coli 25922 (E. coli ATCC 25922 [9]) | MIC against E. coli 25922, MHB (E. coli ATCC 25922 [9]) | MIC E. coli ML35 43827 (E. coli ML35 43827 [10]) | MIC P. aeruginosa 27853 (P. aeruginosa 27853 [11]) | MIC against E. coli 25922, Serum (without Pre-Incubation) (E. coli 25922) | MBC E. coli 35218 (E. coli 35218) | MIC E. coli 35218 [12] | MIC E. coli 11775 (E. coli ATCC 11775) | MBC E. coli ML35 43827 (E. coli ML35 43827 [14]) | MBC E. coli 25922 (E. coli ATCC 25922 [15]) | MIC E. coli N°40 [1] | MIC E. coli N°4 [2] | MIC E. coli N°44 [3] | MBC E. coli N°44 [18] | fold increase in MIC over initial MIC (E. coli ATCC 25922 [20]) | also measured |
| --- | --- | --- | --- | --- | --- | --- | --- | --- | --- | --- | --- | --- | --- | --- | --- | --- | --- | --- |
| CNC(C)C1CCC(N)C(OC2C(N)CC(N)C(OC3OCC(C)(O)C(NC)C3O)C2O)O1 (centres unmarked) [Gentamicin, gentamicin] |  |  |  |  |  |  |  |  |  |  |  |  |  |  |  |  |  | MIC E. coli N°40 (antibiotics) ([1]; clinical isolate): 1 µg/mL (≈ 2.09 µM); MIC E. coli N°4 (antibiotics) ([2]; clinical isolate): 2 µg/mL (≈ 4.19 µM); MIC E. coli N°44 (antibiotics) ([3]; clinical isolate): >16 µg/mL; MIC (E. coli [4]): 0.5 µg/mL (≈ 1.05 µM); MIC [5]: ≥ 16 µg/mL; MIC [6]: ≤ 1 µg/mL; MIC [7]: ≤ 1 µg/mL |
| cecropin P1 (SWLSKTAKKLENSAKKRISEGIAIAIQGGPR; UniProt P14661 14-44, looked up) [positive permeabilisation control peptide, reference compound] | capable of inducing a high rate of permeabilisation for the first 30 min of incubation |  |  |  |  |  |  |  |  |  |  |  |  |  |  |  |  |  |
| RYRRKKKMKKALQYIKLLKE-NH2 [Peptide 35409, reference compound] |  | 1.56 µM | 25 µM | 25 µM | 25 µM | >100 µM | 25 µM | 6 µM | 6 µM | >100 µM | 25 µM | 50 µM |  |  |  |  |  | MHC against human red blood cells [13]: 1.5 µM; cytotoxic activity against HepG2 (HepG2 human cell line): did not have cytotoxic activity; cytotoxic activity against HeLa (HeLa human cell line): did not have cytotoxic activity |
| RKKKMKKALQYIKLLKE-NH2 [Peptide 35409-1] | did act on E. coli internal membrane | >200 µM | 25 µM | 25 µM | 3 µM | 100 µM | 12.5 µM | 6 µM | 6 µM | >100 µM | 3 µM | 25 µM | 25 µM | >100 µM | 12.5 µM | 100 µM | eight-fold | haemolysis relative to average MIC ([8]; concentration as multiple of average MIC 14.3 µM): did not induce haemolysis at 14-fold higher concentrations; MIC against E. coli 25922, Serum (6 h Pre-Incubation) (E. coli 25922; peptide in fresh human sera (100%) pre-incubated 6 h at 37 °C before inoculum, stability read-out): 50 µM; time at which maximum permeabilisation was reached (E. coli ML35; 1X PBS, 1.5 mM ONPG, 37 °C, 405 nm every 30 min for 4.5 h, triplicate): 1.5 h; Interpretation (E. coli [16]; peptide + ciprofloxacin): Indifference; x MIC Combination, Peptide (E. coli [16]; with ciprofloxacin, fraction of individual peptide MIC (individual = 1)): 1/1 x MIC; MBC P. aeruginosa 27853 (P. aeruginosa 27853 [17]): 100 µM; Interpretation (E. coli [19]; peptide + gentamicin): Indifference; x MIC Combination, Peptide (E. coli [19]; with gentamicin, fraction of individual peptide MIC (individual = 1)): 1/0.25 x MIC; average MIC against E. coli [21]: 14.3 µM |
| KMKKALQYIKLLKE-NH2 [Peptide 35409-4] |  | >200 µM | 100 µM | 100 µM | 25 µM | >100 µM | 100 µM | 50 µM | 25 µM | >100 µM | 50 µM | 100 µM | >100 µM | >100 µM | 100 µM | > 100 µM |  | FIC Index (E. coli [16]; peptide + ciprofloxacin, lowest checkerboard FIC index (method 3)): 3; FIC P (peptide) (E. coli [16]; with ciprofloxacin): 1; FIC Index (E. coli [19]; peptide + gentamicin, lowest checkerboard FIC index (method 3)): 0.75; FIC P (peptide) (E. coli [19]; with gentamicin): 0.25 |
| CN(C)[C@@H]1C(O)=C(C(N)=O)C(=O)[C@@]2(O)C(O)=C3C(=O)c4c(O)cccc4[C@@](C)(O)[C@H]3C[C@@H]12 [Tetracycline, tetracycline, reference compound] |  |  |  |  |  |  |  |  |  |  |  |  |  |  |  |  | 128 fold |  |
